US6958345B2, “2-hydroxymethylcyclopropylidene methylpurines and -pyrimidines as antiviral agents” (The Regents of the University of Michigan, priority 1997, dated 2005)

Columns and labels:
HHV-6 = HHV-6 ELISA in HSB-2 cells; assay type: cell-based, human herpes virus 6 (HHV 6)
Experimental: (c) HHV-6. In this case, enzyme-linked immunosorbent assay (ELISA) was performed in covalent amine plates (Costar, Cambridge, Mass.). The plates were activated by the addition of a homobifunctional crosslinking agent, bis(sulfosuccinimidyl) suberate, which was dissolved at 1 mg/mL in 30 mL of phosphate buffered saline (PBS: 137 mM NaCl, 2.7 mM KCl, 4.3 mM Na2HPO4, 1.4 mM KH2PO4, pH 7.4) and 300 μL of the crosslinker was added to each well in the covalent plate. The crosslinker reacted with the amine function on the plate for 30 min at room temperature. The byproduct, sodium N-hydroxysuccinimide sulfite, was removed by decanting and washing the plate twice with PBS. Samples consisting of 150 μl of mixed suspended HSB2 cells from the original drug-treated plate were solubilized in an equal volume of 10% Triton X-100 in coating buffer (15 mM Na2CO3, […] NaHCO3, pH 9.6). The plate was covered and then incubated for 1 h at 37° C. in a 5% CO2 atmosphere. These binding conditions facilitated covalent attachment of the antigen to the free end of the crosslinker.
After covalent binding, the antigen solution was decanted and the plate was washed six times in HEPES buffered saline (Shipman, C., Jr., Proc. Soc. Exp. Biol. 130:305-310 (1969)) with 0.05% Tween 20 (HBS-T ), soaking for three min for each wash. […] Absorbance in each well was determined at 450/570 nm.

HSV-1 = HSV-1 ELISA in BSC-1 cells; assay type: cell-based, herpes simplex 1 (HSV-1); conditions: BSC-1 cells; ELISA
Experimental: Virological procedures. Stock HCMV was prepared by infecting HFF cells at a multiplicity of infection (m.o.i.) of <0.01 plaque-forming units (p.f.u.) per cell. Cell growth medium was changed every four days until cytopathology was evident in all cells (approximately 21 days). Supernatant fluids were retained as the virus stock. High titer HSV-1 stocks were prepared by infecting KB cells at an m.o.i. of <0.1 as detailed previously. Turk, S. R., et al., Antimicrob. Agents Chemother. 31:544-550 (1987). Virus titers were determined using monolayer cultures of HFF cells for HCMV and monolayer cultures of BSC-1 cells for HSV-1 as described earlier. Prichard, M. N., et al., J. Virol. Methods 28:101-106 (1990). Briefly, HFF or BSC-1 cells were planted as described above in 96-well cluster dishes and incubated overnight at 37° C. in a humidified 3% CO297% air atmosphere. The next day cultures were inoculated with HCMV or HSV-1 and serially diluted 1:3 across the remaining eleven columns of the 96-well plate. Cultures were incubated at 37° C. for 2 hr to permit virus adsorption and then virus inoculum was replaced with 0.2 mL of fresh medium. Cultures were incubated for seven days for HCMV, two or three days for HSV-1, medium was removed, and the cell sheets were stained with 0.1% crystal violet in 20% methanol. Plaques were enumerated under 20-fold magnification in wells having the dilution which gave 5 to 20 plaques per well. Virus titers were calculated according to the following Formula: Titer (p.f.u./mL)=number of plaques×5×3^n; where n represents the nth dilution of the virus used to infect the well in which plaques were enumerated.
(b) HSV-1. An enzyme-linked immunosorbent assay (ELISA) was employed to detect HSV-1. 96-well cluster dishes were planted with BSC-1 cells at 10,000 cells per well, in a total volume of 200 μL per well of MEM(E) plus 10% calf serum. After overnight incubation at 37° C., drug and HSV-1 was added at the rate of 100 PFU/well. ELISA plates were blocked with 200 μL per well of 10% calf serum and 0.05% tween in HBS. After incubation for 30 minutes, the blocking agent was rinsed two times with HBS-T. A 1:400 dilution of AP conjugated rabbit anti-HSV-1 antibody in HBS-F was added. Plates were sealed with adhesive sheet, and incubated on rocker for one hour at 37° C. Plates were developed in the dark with 100 μL per well of substrate solution containing p-nitrophenyl phosphate. Plates were read at […]. Drug effects were calculated as a percentage of the reduction in virus in the presence of each drug concentration compared to the titer obtained in the absence of drug. Acyclovir was used as a positive control in all experiments.
Data Analysis. Dose-response relationships were constructed by linearly regressing the percent inhibition of parameters derived in the preceding sections against log drug concentrations. Fifty-percent inhibitory (IC50) concentrations were calculated from the regression lines. Samples containing positive controls (acyclovir for HSV-1, ganciclovir for HCMV, and 2-acetylpyridine thiosemicarbazone for cytotoxicity) were used in all assays.

[1] = system: murine cytomegalovirus (MCMV); experiment: Mortality of mice infected with murine cytomegalovirus; assay type: in vivo
Experimental: Compounds 1 (B=adenin-N^9-yl and guanin-N^9-yl) were evaluated in mice infected with murine cytomegalovirus (MCMV). Mice were infected intraperitonealy with sufficient MCMV to produce 90 to 100% mortality. Compounds were administered once daily for five days at doses of 5.6, 16.7 and 50 mg/kg by intraperitoneal injection in a 0.4% suspension of carboxymethylcellulose. Ganciclovir was administered in sterile water at the same doses as a positive control drug. All compounds were administered to separate groups of 15 mice each at 6, 24, and 48 hours after infection with MCMV. Groups of 10 uninfected mice also received test compounds as toxicity controls at the doses listed above.

For Nc1ncnc2c1ncn2C=C1CC1CO (stereo not drawn) [1 (B = adenine), Example 5, syn-N^9-(2-hydroxymethylcyclopropylidenemethyl)adenine], the IC50 (HHV-6) was 3 µM, the IC50 (HSV-1) was 3.7 µM and the “mortality of MCMV-infected mice” value ([1]; 50 mg/kg i.p. once daily for five days, placebo 100%) was 33%. For the same compound, the “effect on mortality at lower doses or delayed administration” value ([1]; lower doses, administration delayed until 24 or 48 hours after infection) was “Decreasing effects”.
